One data set in a line: ABTS antioxidant assay. It is filed as biochemical. More on the design: IC50 in ABTS assay: unit not given beside the values. The settings on record: isolated compounds from lettuce seedcake; unit not given. How it is done: The experiment was performed in triplicate according to Zaky et al.. The absorbance of control of the resulting green-blue solution (ABTS* radical solution) was recorded at λ max 734 nm.

The next data set concerns C. albicans. Kind of data set: Antimicrobial screening, zone of inhibition. The settings on record: Table 1. It is filed as cell-based. How it is done:
(§1) The procedure was performed according to […] et al.. A comparison of the extract's zone of inhibition to that of a reference antibiotic's activity index was determined using the following equation:Activity index = (the inhibition zone of extract/the inhibition zone of the standard) × 100

The test system of a further data set is E. coli. Nature of the data set: Antimicrobial screening, zone of inhibition. It is filed as cell-based. As to conditions: Table 1. How it is done: as §1
Another data set has as its system S. aureus. Nature of the data set: Antimicrobial screening, zone of inhibition. The class given is cell-based. The settings on record: Table 1. How it is done: as §1
A further data set relates to P. aeruginosa. Kind of data set: Antimicrobial screening, zone of inhibition. It is filed as cell-based. The settings on record: Table 1. On the procedure: The procedure was performed according to Stylianakis et al.. A comparison of the extract’s zone of inhibition to that of a reference antibiotic’s activity index was determined using the following equation:Activity index = (the inhibition zone of extract/the inhibition zone of the standard) × 100

For another data set, the system named is HepG-2 cancer cell line. Nature of the data set: Cytotoxic activity (MTT assay). It is filed as cell-based. On the procedure: (§2) The HPLC was performed in the Institute for Plant Biology, TU Braunschweig, using a Young Lin quaternary pump, vacuum degasser, column oven (40 °C), diode array detector (YL9160 PDA), and a Midas Spark Holland autosampler. UV spectra (λ max) were measured in the central laboratory of the Faculty of Pharmaceutical Science at Mansoura University using spectroscopic methanol with an ultraviolet-visible spectrophotometer (Shimadzu 1601 PC, version TCC-240A, Kyoto, Japan). The NMR unit of Mansoura University’s Faculty of Pharmacy obtained nuclear magnetic resonance spectra (^1H-NMR, ^13C-NMR, DEPT-Q, APT, HSQC, and HMBC) using a Bruker DRX 600 NMR spectrometer (600 and 150 MHz for ^1H and ^13C-NMR, respectively) and with the Bruker Corporation Avance III 400 spectrometer, which measures ^1H and ^13C-NMR at 400 and 100 MHz, respectively. The types of solvents that are used are CDCl3, CD3OD, and DMSO-d6. For normal phase chromatography, silica gel G 60–230 mesh (Merck, Darmstadt, Germany) was packed using a wet or dry method in the specified solvent. The purchase of Normal Human lung fibroblast (WI-38), hepatic cancer cell lines (HePG-2), and mammary gland (MCF-7) cell lines from ATCC was made possible by the Holding firm for biological goods and vaccines (VACSERA), which is based in Cairo, Egypt.
(§3) Using the MTT test, the inhibitory effects of substances on cell growth were ascertained using the cell lines compared to normal lung fibroblast cells (WI-38). The selectivity index was calculated via the Selectivity index (SI) equation: SI equals IC50 normal/IC50 cancer.
In general terms: Formazan colour is commonly taken as a measure of viable cells.

Another data set concerns MCF-7 cancer cell line. Kind of data set: Cytotoxic activity (MTT assay). The class given is cell-based. On the procedure:
as §2, §3

Data set [1] is described as follows: Cytotoxic activity (MTT assay), normal cells. It is filed as cell-based. As to conditions: human; MTT; normal cells; read-out: In Vitro Cytotoxicity IC50 (µg/mL) WI-38. How it is done: as §2, §3
Data set [2] concerns carrageenan-induced paw oedema. Nature of the data set: Carrageenan-induced paw oedema. As to conditions: dose 10 mg/kg oral, rat. It is filed as in vivo. On the procedure:
Adult albino rats 180-220 g of both sexes used in the investigation were acquired from the Mansoura University Faculty of Pharmacy's Animal House. Standard laboratory diet and water were provided, and they were housed in cages maintained at a constant temperature of 22 ± 2 °C. The Animal Care and Use Committee (MU-ACUC) of Mansoura University, Egypt, has approved all procedures involving animals with code number: […] Throughout the experiment, medications and extracts were given orally in doses of 1 mL/100 g of the rat's body weight after being solubilized in carboxymethyl cellulose (CMC) in order to create a suspension formula. In this test, rats were divided into six groups, with each group containing 5 animals. Group-1: […] Group-2: Positive control (carrageenan-induced oedema, Sigma (St. Louis, MO, USA)) without any treatment. […] Group-4: […] extract of Lactuca sativa was administered at a 2 g/kg dose. Group-5: Compound (1) is administered at a dose of 20 mg/kg. Group-6: Compound (1) at a dose of 40 mg/kg. Group-7: Combination of standard and compound (1) at doses of (10 + 20) mg/kg, respectively. […] Using a digital vernier calliper, the swelling of the paw that had been injected with carrageenan was measured prior to injection as well as 1, 2, 3, 4, and 5 h following the treatment's induction. The percentage inhibition of oedema in the test animals treated with the extract compared to the carrageenan control group was used to calculate the anti-inflammatory activity. The formula […] was used to calculate the percentage inhibition of inflammation, where “dt” represents the difference in paw volume in the drug-treated group and “dc” represents the difference in paw volume relative to the control group. Moreover, “I” represents the suppression of inflammation.

Another data set concerns dermal inflammation. Kind of data set: Histopathological assessment of paw skin tissue (carrageenan model). It is filed as in vivo, rat. The settings on record: Group 3, ibuprofen 10 mg/kg; 5 h after carrageenan. An excerpt: Five hours following the carrageenan injection, tissue specimen samples from the paw skin tissue of every group under study were removed for histological examination. Prior to being submerged in paraffin blocks, they were fixed in a 10% formalin solution and stained with hematoxylin-eosin. Using a microtome, paraffin sections with a thickness of 5 µm were cut, and hematoxylin and eosin were frequently applied to the sections. Microscopically, these tissue slices were inspected. Consequently, the sections were examined under a light microscope; on the other hand, photos taken with a digital camera (Canon Power-shot D10) recorded the progression of paw oedema.

A further data set deals with GPx. Nature of the data set: GPx activity in rat paw tissue homogenate (carrageenan model). The class given is in vivo. How it is done: (§4) The levels of inflammatory mediators (IL-1β, TNF-α, and PGE2) in rat paw tissue homogenate were measured using the following Kits: Rat TNF-α (Tumor Necrosis Factor Alpha) ELISA Kit from Elabscience® Company, Houston, TX, USA, Interleukin 1 Beta (IL-1b) Organism Species: Rattus norvegicus (Rat) from Cloud Clone Crop Company and Rat PGE2 (Prostaglandin E2) ELISA Kit from Fine test® company Hubei, China. In addition, oxidative stress parameters in rat paw tissue homogenate were measured using superoxide dismutase, glutathione peroxidase, and catalase Kits from the Biodiagnostic company, Birmingham, UK.
(§5) Rats were slaughtered, and their paw tissues were gathered and weighed five hours after the carrageenan was administered. The tissues underwent processing after being fixed in 10% formalin. Rat paw tissue was homogenized, and its oxidative stress indices (SOD, CAT, and GPx) as well as the levels of inflammatory mediators (IL-1β, TNF-α, and PGE2) were measured.

A further data set deals with CAT. Kind of data set: CAT activity in rat paw tissue homogenate (carrageenan model). It is filed as in vivo. As to conditions: paw tissue 5 h after carrageenan; ibuprofen 10 mg/kg. On the procedure: as §4, §5
(Carrageenan injected into the paw causes an acute inflammation.)

In a further data set the test system is SOD. Nature of the data set: SOD activity in rat paw tissue homogenate (carrageenan model). It is filed as in vivo. How it is done: as §4, §5
The mark [3] stands for this setting: 1 mg/mL, relative to ciprofloxacin.
The mark [4] stands for this setting: IC50 normal (WI-38)/IC50 cancer.
[5] abbreviates: paw tissue 5 h after carrageenan, ibuprofen 10 mg/kg.

Each structure is given as a SMILES string. Converted amounts (≈) assume the structure as drawn.

The term zone of inhibition denotes the size of the clear area around the sample on an inoculated plate. In the case of `O=c1cc(-c2ccc(O)cc2)oc2cc(O[C@@H]3O[C@H](CO)[C@@H](O)[C@H](O)[C@H]3O)cc(O)c12` [Compound 4, apigenin 7-O-β-D-glucoside], the “IC50 in ABTS assay” value in the data set “ABTS antioxidant assay” was 51.27 ± 0.25. Further, the zone of inhibition at 1000 µg/mL in the data set with C. albicans (Candida albicans, isolated compounds 1 mg/mL, read-out: C. Albicans Diameter of Inhibition Zone (mm)) was 5.95 ± 0.07 mm; in the data set on E. coli (Escherichia coli, isolated compounds 1 mg/mL, read-out: E. coli Diameter of Inhibition Zone (mm)), 6.8 ± 0.15 mm; in the data set on S. aureus (Staphylococcus aureus, isolated compounds 1 mg/mL, read-out: S. aureus Diameter of Inhibition Zone (mm)), 11.9 ± 0.15 mm; in the data set with P. aeruginosa (Pseudomonas aeruginosa, isolated compounds 1 mg/mL, read-out: P. aeruginosa Diameter of Inhibition Zone (mm)) it was 9.8 ± 0.15 mm. Also, the “C. Albicans %Activity Index” value with C. albicans (1 mg/mL, relative to clotrimazole) came to 22.1%. For the same compound, the “E. coli %Activity Index” value in the data set on E. coli (setting [3]) is 26.1%. The “S. aureus %Activity Index” value in the data set with S. aureus (setting [3]) is recorded as 50%. For the same compound, the “P. aeruginosa %Activity Index” value in the data set with P. aeruginosa (setting [3]) is 42.8%. The IC50 with HepG-2 cancer cell line (Homo sapiens, HepG2, read-out: In Vitro Cytotoxicity IC50 (µg/mL) HepG-2) was 43.4 ± 2.5 µg/mL (≈ 100 µM); in the data set with MCF-7 cancer cell line (Homo sapiens, MCF7, read-out: In Vitro Cytotoxicity IC50 (µg/mL) MCF-7) it was 39.8 ± 2.2 µg/mL (≈ 92 µM); in [1], 84.3 ± 4.3 µg/mL (≈ 195 µM). In the data set on HepG-2 cancer cell line (setting [4]), the “Selectivity Index HepG2” value was 1.9. Besides, the “Selectivity Index MCF-7” value in the data set on MCF-7 cancer cell line (setting [4]) is 2.1.
With `CC(C)Cc1ccc(C(C)C(=O)O)cc1` (stereo not drawn) [Ibuprofen, ibuprofen, reference compound], the “% Inhibition (%I) of paw oedema” value in [2] (1 h) worked out at 15.62%; in [2] (2 h), 25.62%; in data set [2] (3 h), 28.5%; in data set [2] (4 h), 62.66%; in [2] (5 h), 70.9%. Moreover, the “Increase in Paw Oedema” value in data set [2] (1 h) was 0.69 ± 0.16 mL; in [2] (2 h), 1.57 ± 0.21 mL; in data set [2] (3 h) it was 1.82 ± 0.38 mL; in [2] (4 h) it was 1.49 ± 0.47 mL; in data set [2] (5 h), 1.20 ± 0.37 mL. In the data set on dermal inflammation, the “Histopathology of paw skin (H&E)” value was “mild dermal inflammation”. Further, the GSH protection with GPx (ibuprofen alone) came to 78.74%. Further, the “GPx (U/gm Tissue)” value in the data set on GPx (setting [5]) was 93.35 ± 8.84 U/gm Tissue. Moreover, the “CAT (U/gm Tissue)” value in the data set on CAT was 2.20 ± 0.20 U/gm Tissue. The SOD protection with SOD (ibuprofen alone) was determined as 75.17%. The “SOD (U/gm Tissue)” value in the data set with SOD (setting [5]) stood at 142.1 ± 14.71 U/gm Tissue.

The values are drawn from PMC11507441, “Oilseed Cakes: A Promising Source of Antioxidant, and Anti-Inflammatory Agents—Insights from Lactuca sativa” (International Journal of Molecular Sciences, 2024).
